According to EP4810492A1, “NMT INHIBITOR, PREPARATION METHOD THEREFOR, AND USE THEREOF” (Nanjing Synnocare Pharmaceutical Technology Co., Ltd., priority 2023, dated 2025):
Read-outs that look alike come from different tables or passages of the source.

How the values were obtained:
NMT1 enzyme = target: T1, NMT1 enzyme (Homo sapiens, UniProt P30419); test: Inhibitory activity on NMT1 enzyme catalysis (fluorescence intensity assay); type: biochemical
T1 sequence (P30419 1-496): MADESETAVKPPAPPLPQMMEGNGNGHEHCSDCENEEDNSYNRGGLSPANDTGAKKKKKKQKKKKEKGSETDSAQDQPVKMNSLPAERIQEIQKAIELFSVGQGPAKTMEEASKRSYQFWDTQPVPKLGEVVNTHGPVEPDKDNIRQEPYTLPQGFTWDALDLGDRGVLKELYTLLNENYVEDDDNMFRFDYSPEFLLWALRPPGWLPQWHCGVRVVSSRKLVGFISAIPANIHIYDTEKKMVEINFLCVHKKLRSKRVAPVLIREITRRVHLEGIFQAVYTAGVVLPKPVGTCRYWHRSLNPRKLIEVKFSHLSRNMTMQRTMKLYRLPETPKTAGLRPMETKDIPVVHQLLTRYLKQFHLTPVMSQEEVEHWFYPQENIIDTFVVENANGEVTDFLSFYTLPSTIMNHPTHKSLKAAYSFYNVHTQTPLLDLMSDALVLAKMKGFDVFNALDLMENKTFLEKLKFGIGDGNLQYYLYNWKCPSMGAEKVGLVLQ
Procedure: This study evaluated the ability of the compounds of the invention to inhibit NMT1 catalytic activity in vitro. […] The final concentration of the NMT1 enzyme was 6 nM, the final concentration of CPM (Reactive thiol fluorescence probe, Invitrogen, D346) was 1 µM, the final concentration of HSPP60 SRC was 20 µM, and the final concentration of DMSO was 0.5%.
Compounds were dissolved in DMSO to obtain 10 mM stock solutions. Dose-response solutions were prepared with a top endpoint compound concentration of 3 mM, followed by three-fold serial dilutions in DMSO, totaling ten data points. […] Then, 2.5 µL of the NMT1 enzyme working solution was added to the 384-well assay plate, followed by incubation at 25 °C for 10 minutes. Subsequently, 5 µL of the CPM and myristoyl-CoA working solution was added, the plate was centrifuged at 1000 rpm for 1 minute, and then 2.5 µL of the HSPP60 SRC working solution was added to initiate the reaction. The reaction was incubated at 25 °C for 45 minutes.
The IC50 curve of the compounds was fitted using the software XLfit 5.5.0 according to the nonlinear regression equation.

[1] = Plasma concentrations in mice following oral administration; settings: ICR, mouse, po, 10 mg/kg
From the text: This study evaluated the plasma concentrations of the compounds of the present invention in mice. ICR mice were procured from JOINN Laboratories (Suzhou) Co., Ltd. At the initiation of dosing, the animals were 6-8 weeks old and weighed 18-25 g. Mice were housed in transparent plastic cages (400 mm*240 mm*200 mm). The animal facility maintained a 12-hour light/12-hour dark cycle (lights on 07:00-19:00) using fluorescent lighting. The dark period may be intermittently interrupted as required for study-related activities. Ambient temperature and relative humidity were controlled within 20-26 °C and 40-70%, respectively. Animals were fed certified rodent chow and provided with drinking water filtered and sterilized through an ultrapure water system. All animals had ad libitum access to water throughout the study. Animals were fasted for at least 12 hours prior to dosing, and food was restored 4 hours post-dosing.
Prior to dosing, body weights were recorded, and healthy animals with similar weights were selected and randomly assigned to groups (n = 3 per group) based on body weight. The compounds were formulated in a 0.5% aqueous carboxymethyl cellulose (CMC) solution and administered orally at a single dose of 10 mg/kg. Blood samples (≥0.2 mL) were collected via venipuncture at 1 h and 4 h post-dose into EDTA-K2 anticoagulant tubes. Tubes were gently inverted to mix, immediately placed in an ice-water bath, and rapidly centrifuged at 4,000 rpm for 10 min at 4 °C to separate plasma. Plasma was stored at -70 °C until analysis.
Calibration curve and QC plasma samples: Working solutions for the calibration curve and QC samples were prepared using 80% methanol in water (Thermo Fisher) as the diluent. To prepare plasma calibration standards and QC samples, 5 µL of each working solution was added to 45 µL of blank plasma and mixed. To the prepared calibration and QC samples, 300 µL of internal standard solution (tolbutamide at 8 µg/mL in acetonitrile, Thermo Fisher) was added. […] The supernatant was collected and analyzed by liquid chromatography-tandem mass spectrometry (LC-MS/MS; AB Sciex API 5000).
Plasma sample pretreatment: After thawing at room temperature, 50 µL of each plasma sample was mixed with 300 µL of the internal standard solution (tolbutamide at 8 µg/mL in acetonitrile, Thermo Fisher). […] The supernatant was collected and analyzed by LC-MS/MS (AB Sciex API 5000).
Raw chromatograms, concentrations, and accuracy data were generated using Analyst software version 1.6.3.

MV-4-11 cells = test: Anti-proliferative activity against MV-4-11 cells (cell viability chemiluminescence); type: cell-based; settings: MV4-11, 72 h, MV-4-11 human monocytic leukemia cells, three days of exposure
Procedure: This study utilized a cell proliferation assay to analyze the cytotoxicity of MV-4-11 human monocytic leukemia cells after three days of exposure to NMT1 inhibitors. The MV-4-11 cell line was purchased from Nanjing Cobuilder Biotechnology Co., Ltd., and cultured in IMDM medium (Viva cell) in an incubator (Thermo) at 37 °C with 5% CO2. In this experiment, NMT1 inhibitors were dissolved in DMSO to obtain 600 µM stock solutions. Dose-response solutions were prepared with a top endpoint compound concentration of 3 µM, followed by three-fold serial dilutions in DMSO, totaling eight data points. The final concentration of DMSO was 0.5%.
MV-4-11 cells were seeded into a white 96-well plate, 80 µL of cell suspension per well, containing 6000 MV-4-11 cells. The cell plate was placed in the CO2 incubator for overnight culture. Then, 20 µL of NMT1 inhibitor solutions at different concentrations were added to the wells. The 96-well plate was placed back into the incubator for three days. Another cell plate was prepared, and the signal was read on the day of drug addition to serve as the maximum value (Max value in the equation below) for data analysis. To this cell plate, 25 µL of cell viability chemiluminescence detection reagent was added per well, followed by incubation at room temperature for 10 minutes to stabilize the luminescence signal. A multi-label analyzer was used for reading.
The raw data were converted into inhibition rates using the equation (Sample - Min) / (Max - Min) * 100%. The IC50 values were then determined by fitting a four-parameter curve (using the "log(inhibitor) vs. response - Variable slope" model in GraphPad Prism). Min: wells treated with 0.5% DMSO; Max: Day 0 wells. Table 1 provides the inhibitory activity of the compounds of the invention on MV-4-11 cell proliferation. Table 1: Compound Inhibitory Activity against NMT1 Enzyme (IC50) and Anti-proliferative Activity against MV-4-11 Cell line (IC50)

[2] = 6 nM NMT1 enzyme, 1.25 µM myristoyl-CoA, 20 µM HSPP60 SRC peptide, 45 minutes at 25 °C, read-out: NMT1 (IC50)

| SMILES | IC50 (NMT1 enzyme; [2]) [nM] | concentration at 1 h [1] [ng/mL] | concentration at 4 h [1] [ng/mL] | concentration at 8 h [1] [ng/mL] | IC50 (MV-4-11 cells) [nM] | IC50 (NMT1 enzyme) [nM] | IC50 (MV-4-11 cells; Homo sapiens) [nM] |
| --- | --- | --- | --- | --- | --- | --- | --- |
| Cc1nn(C)c(C)c1NS(=O)(=O)c1c(Cl)cc(-c2ccc3sc4c(c3c2)CNCC4)cc1Cl [Compound 1, 2,6-dichloro-4-(1,2,3,4-tetrahydrobenzo[4,5]thieno[3,2-c]pyridin-8-yl)-N-(1,3,5-trimethyl-1H-pyrazol-4-yl)benzenesulfonamide] | 3.44 | 1820 ± 493 | 1350 ± 15 | 723 ± 363 | 11.1 | – | – |
| Cc1c(NS(=O)(=O)c2c(Cl)cc(-c3ccc4sc5c(c4c3)CNCC5)cc2Cl)c(CC(F)(F)F)nn1C [Compound 17] | 5.62 | 5100 ± 2700 | 4080 ± 1970 | 3000 ± 1020 | 62.5 | – | – |
| Cc1c(NS(=O)(=O)c2c(Cl)cc(-c3ccc4sc5c(c4c3)CCNC5)cc2Cl)c(CC(C)C)nn1C [Compound 54] | 4.73 | 3320 ± 1200 | 2310 ± 211 | 981 ± 343 | 38 | – | – |
| Cc1c(NS(=O)(=O)c2c(Cl)cc(-c3ccc4oc5c(c4c3)CNCC5)cc2Cl)c(CC#N)nn1C [Compound B18] | 4.85 | 2490 ± 1200 | 1670 ± 467 | 1040 ± 157 | 37 | – | – |
| Cc1c(NS(=O)(=O)c2c(Cl)cc(-c3ccc4oc5c(c4c3)CNCC5)cc2Cl)c(CC2CC2)nn1C [Compound B26] | 2.87 | 4630 ± 2020 | 3380 ± 575 | 2150 ± 206 | 11.4 | – | – |
| Cc1c(NS(=O)(=O)c2ccc(-c3ccc4sc5c(c4c3)CNCC5)cc2)c(CC2CC2)nn1C [Compound B30] | 2.59 | – | – | – | 12.3 | – | – |
| Cc1c(NS(=O)(=O)c2c(Cl)cc(-c3ccc4oc5c(c4c3)CNCC5)cc2Cl)c(CC(F)(F)F)nn1C [Compound B34] | 5.03 | – | – | – | 61.8 | – | – |
| Cc1c(NS(=O)(=O)c2c(Cl)cc(N3CCc4oc5c(c4C3)CNCC5)cc2Cl)c(CC(F)(F)F)nn1C [Compound B36] | 2.75 | – | – | – | 26.2 | – | – |
| Cc1c(NS(=O)(=O)c2ccc(-c3ccc4sc5c(c4c3)CNCC5)cc2Cl)c(CC(F)(F)F)nn1C [Compound B37] | 2.21 | – | – | – | 16.6 | – | – |
| Cc1c(NS(=O)(=O)c2ccc(-c3ccc4oc5c(c4c3)CNCC5)cc2Cl)c(CC(F)(F)F)nn1C [Compound B39] | 4.76 | 9760 ± 410 | 8530 ± 1170 | 6730 ± 1450 | 40.1 | – | – |
| Cc1c(NS(=O)(=O)c2ccc(-c3ccc4sc5c(c4c3)CNCC5)cc2)c(CC(F)(F)F)nn1C [Compound B40] | – | – | – | – | – | 2.7 | 11.3 |
| Cc1c(NS(=O)(=O)c2c(Cl)cc(-c3ccc4sc5c(c4c3)CNCC5)cc2Cl)c(CCF)nn1C [Compound B43] | 1.79 | 3220 ± 650 | 1710 ± 224 | 1570 ± 104 | 3.42 | – | – |
| Cc1c(NS(=O)(=O)c2c(Cl)cc(-c3ccc4sc5c(c4c3)CCNC5)cc2Cl)c(CCF)nn1C [Compound B44] | 2.08 | – | – | – | 9.27 | – | – |
| Cc1c(NS(=O)(=O)c2c(Cl)cc(-c3ccc4oc5c(c4c3)CNCC5)cc2Cl)c(CCF)nn1C [Compound B45] | 1.94 | 5040 ± 1820 | 3800 ± 621 | 3730 ± 1280 | 9.51 | – | – |
| Cc1c(NS(=O)(=O)c2c(Cl)cc(N3CCc4sc5c(c4C3)CNCC5)cc2Cl)c(CCF)nn1C [Compound B46] | 2.03 | – | – | – | 3.61 | – | – |
| Cc1c(NS(=O)(=O)c2ccc(-c3ccc4sc5c(c4c3)CNCC5)cc2Cl)c(CCF)nn1C [Compound B48] | 1.89 | 2960 ± 340 | 1400 ± 240 | 447 ± 71 | 3.26 | – | – |
| Cc1c(NS(=O)(=O)c2ccc(-c3ccc4sc5c(c4c3)CCNC5)cc2Cl)c(CCF)nn1C [Compound B49] | 2.37 | – | – | – | 19.5 | – | – |
| Cc1c(NS(=O)(=O)c2ccc(-c3ccc4oc5c(c4c3)CNCC5)cc2Cl)c(CCF)nn1C [Compound B50] | 3.95 | – | – | – | 17.9 | – | – |
| Cc1c(NS(=O)(=O)c2ccc(-c3ccc4sc5c(c4c3)CNCC5)cc2)c(CCF)nn1C [Compound B51] | 2.51 | – | – | – | 6.05 | – | – |
| Cc1c(NS(=O)(=O)c2ccc(-c3ccc4sc5c(c4c3)CCNC5)cc2)c(CCF)nn1C [Compound B52] | 3.88 | 3630 ± 990 | 2180 ± 185 | 504 ± 71 | 17.3 | – | – |
| Cc1c(NS(=O)(=O)c2c(Cl)cc(-c3ccc4sc5c(c4c3)CNCC5)cc2Cl)c(CC(F)F)nn1C [Compound B54] | 1.79 | – | – | – | 5.45 | – | – |
| Cc1c(NS(=O)(=O)c2c(Cl)cc(-c3ccc4sc5c(c4c3)CCNC5)cc2Cl)c(CC(F)F)nn1C [Compound B55] | 3.72 | – | – | – | 21.1 | – | – |
| Cc1c(NS(=O)(=O)c2c(Cl)cc(-c3ccc4oc5c(c4c3)CNCC5)cc2Cl)c(CC(F)F)nn1C [Compound B56] | 3.49 | – | – | – | 19.6 | – | – |
| Cc1c(NS(=O)(=O)c2c(Cl)cc(N3CCc4sc5c(c4C3)CNCC5)cc2Cl)c(CC(F)F)nn1C [Compound B57] | 2.95 | – | – | – | 11.8 | – | – |
| Cc1c(NS(=O)(=O)c2c(Cl)cc(N3CCc4oc5c(c4C3)CCNC5)cc2Cl)c(CC(F)F)nn1C [Compound B58] | 2.08 | – | – | – | 8.97 | – | – |
| Cc1c(NS(=O)(=O)c2ccc(-c3ccc4oc5c(c4c3)CNCC5)cc2Cl)c(CC(F)F)nn1C [Compound B61] | 5.21 | – | – | – | 27 | – | – |
| Cc1c(NS(=O)(=O)c2ccc(-c3ccc4sc5c(c4c3)CNCC5)cc2)c(CC(F)F)nn1C [Compound B62] | 2.47 | – | – | – | 7.48 | – | – |
| Cc1c(NS(=O)(=O)c2ccc(-c3ccc4sc5c(c4c3)CCNC5)cc2)c(CC(F)F)nn1C [Compound B63] | 3.67 | – | – | – | 20.4 | – | – |
